Experiments:
[1] = tested on: cat fleas (Ctenocephalides felis, fully sensitive laboratory strain); assay: Contact test against fleas in-vitro (CTECFE contact); format: in vivo; settings: 500 g/ha, after 48 h
In short: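 Test tubes coated from acetone solutions by rotation, top concentration 500 g/ha (500 μg/dm^2) on tube surface, serial 1:5 dilutions. 10-20 CO2-anesthetized adult fleas held at room temperature for 24 and 48 h. Activity scored versus acetone control: knock-down or death of all fleas = 100%.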

[2] = logP determination by HPLC on reversed-phase columns (C18), LC-MS neutral; format: physicochemical; settings: pH 7.8, HPLC on C18, calibration with alkan-2-ones
[3] = tested on: Anopheles gambiae (homocygus kdr); assay: Anopheles test (ANPHGB surface treatment); format: in vivo; settings: 100 mg/m^2, two hours after contact, exposition 30 minutes
In short: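 Compound dissolved in acetone at 2 mg/ml, pipetted onto glazed tile and dried; adult kdr-homozygous mosquitoes exposed on the tile for 30 min. Knock-down (%) read 2 h and mortality (%) 24 h after contact.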

Aedes aegypti = assay: Aedes test (AEDSAE surface treatment); format: in vivo; settings: 100 mg/m^2, two hours after contact, exposition 30 minutes
In short: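 Compound dissolved in acetone (2 mg/ml) and dried onto a glazed tile; adult mosquitoes exposed for 30 minutes. Knock-down % scored at 2 hours and mortality % at 24 hours after contact (100% = all killed).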

[4] = tested on: greenhouse red spider mite (Tetranychus urticae); assay: Tetranychus test; OP-resistant (TETRUR spray treatment); format: in vivo; settings: 500 g/ha, spray, after 6 days
In short: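 Bean leaf discs infested with all stages of OP-resistant Tetranychus urticae were sprayed with compound in acetone/DMF with alkylaryl polyglycol ether emulsifier, diluted in emulsifier-water. Mortality was scored after 6 days: 100% means all mites killed, 0% none.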

[5] = tested on: Anopheles funestus strain FUMOZ-R; format: in vivo; settings: 100 mg/m^2, two hours after contact, exposition 30 minutes
Protocol: Anopheles Test (ANPHFU Surface Treatment) Solvent: Acetone
To produce a suitable preparation of active compound, the active compound is dissolved in acetone (2 mg/ml). The active compound preparation is pipetted onto a glazed tile and, after drying, adult mosquitoes of the species Anopheles funestus strain FUMOZ-R (Hunt et al., Med Vet Entomol. 2005 September; 19(3):271-5) are placed onto the treated tile. The exposition time is 30 minutes.
Two hours after contact to the treated surface, the knock-down proportion of the test animals in % is determined.
24 hours after contact to the treated surface, the mortality in % is determined. Here, 100% means that all mosquitoes have been killed; 0% means that none of the mosquitoes has been killed.

[6] = tested on: larvae of the mustard beetle (Phaedon cochleariae); assay: Phaedon test (PHAECO spray treatment); format: in vivo; settings: 500 g/ha, spray, after 7 days
In short: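 Chinese cabbage leaf discs sprayed with compound formulated in acetone/dimethylformamide with alkylaryl polyglycol ether emulsifier, diluted in emulsifier-containing water to the desired concentration. After drying, discs were populated with mustard beetle larvae.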

[7] = tested on: caterpillars of the army worm (Spodoptera frugiperda); assay: Spodoptera frugiperda test (SPODFR spray treatment); format: in vivo; settings: 500 g/ha, spray, after 7 days
In short: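 Maize leaf discs sprayed with compound formulated in acetone/dimethylformamide plus alkylaryl polyglycol ether emulsifier and diluted in water, then infested with Spodoptera frugiperda caterpillars once dry. Mortality scored after 7 days as % activity, where 100% means all caterpillars killed.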

[8] = tested on: green peach aphid (Myzus persicae); assay: Myzus test (MYZUPE spray treatment); format: in vivo; settings: 500 g/ha, spray, after 6 days
In short: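 Chinese cabbage leaf discs infested with all aphid stages were sprayed with compound in acetone/DMF with emulsifier, diluted in emulsifier-containing water. Mortality in % assessed after 6 days (100% = all aphids killed).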

Row | SMILES | activity against cat fleas [1] | logP [2] | knock-down activity [3] | knock-down activity (Aedes aegypti) | activity (spider mites killed) [4] | knock-down activity [5] | activity (beetle larvae killed) [6] | activity (caterpillars killed) [7] | activity (aphids killed) [8]
1 | Cc1ccc(N=C2CCCCCC2=CSc2ccccc2)cc1 [Example 1-38] | 100% | LC-MS (neutral)*: logP = 6.20, (M + H)^+ = 322 | 100% | 100% |  |  |  |  | 
2 | Cc1ccc(N=C2C(=CSc3ccc(F)cc3)C3CCC2C3)cc1 (stereo not shown) [Example 1-40] |  |  | 100% | 100% | 100% | 100% | 100% |  | 
3 | Cc1ccc(N=C2C(=CSc3ccc(F)cc3)CCCC2=Cc2ccccc2)cc1 [Example 1-56] |  | LC-MS (neutral)*: logP = 7.01, (M + H)^+ = 414. |  |  |  |  |  |  | 
4 | Cc1ccc(N=C2C(=CSc3ccccc3)C3CCC2C3)cc1 (stereo not shown) [Example 1-100] |  |  | 100% | 100% |  | 100% | 100% | 100% | 100%
